Data reported in the supplement of paper PMC11208160.

Test: recombinant UMI read abundance after kanamycin selection (control-corrected) (log10(CPM+1)); higher = more efficient recombination; extreme values may be limits of the assay; sequences stand for … in AGTGCAGAGAAAATCGGCCAGTTTTCTCTGCCTGCAGTCCGCATGCCGTGGGACCCCTTGGGTTCTAACCTGTTGCCTAGATTTATGCAGCGGACTGCCTTTCTCCCAAAGTGATAAACCGG…AGGTTGGTTTCACT; site = the 11-nt donor
Procedure: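 Pooled E. coli donor-specificity screen for the IS621 bridge recombinase. Each library member carries a reprogrammed 11-nt donor and a full-length LE bridge RNA expressed in cis from the natural promoter, with a paired donor-binding loop (8-nt LDG + 4-nt RDG) and a target-binding loop fixed to T5. It is co-electroporated with a T5 target plasmid; recombinase is induced with 0.07 mM IPTG and recombinants are selected on kanamycin. UMIs are counted as CPM, averaged over two biological replicates and corrected by the unselected control. Molecule = full bridge RNA written as DNA, built from the T5 scaffold: LDG = donor specificity nt 1-8, RDG = reverse complement of nt 8-11.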
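Note: IS621 bridge recombinase in Escherichia coli cells against a fixed T5 target plasmid.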

Sequence | recombinant UMI read abundance (log10)
ACCCATCCATGGACCGGTTTTCCCGGTAATCCGTATTTGAC (site ACCCATCCTGT) | 0.806
ACCCATCCATGGACCGGTTTTCCCGGTAATCCGTATTTGAC (site ACGCATCCTGT) | 0
ACCCATCCATGGACCGGTTTTCCCGGTAATCCGTATTTGAC (site ACTCATCCTGT) | 0
ACCCCAACATGGACCGGTTTTCCCGGTAATCCGTATTTGTA (site ACCCCAACTTA) | 1.68
ACCCGATCATGGACCGGTTTTCCCGGTAATCCGTATTTGAT (site ACCCGATCTAT) | 1.53
ACCCGCTCATGGACCGGTTTTCCCGGTAATCCGTATTTGTC (site ACCCGCTCTGA) | 2.76
ACCCGGGCATGGACCGGTTTTCCCGGTAATCCGTATTTGAC (site ACCCGGGCTGT) | 2.02
ACCGAACCATGGACCGGTTTTCCCGGTAATCCGTATTTGGA (site ACCGAACCTTC) | 0.00378
ACCGAATCATGGACCGGTTTTCCCGGTAATCCGTATTTGCA (site ACAGTATCTTG) | 0
ACCGAATCATGGACCGGTTTTCCCGGTAATCCGTATTTGCA (site ACCGAATCTTG) | 2.16
ACCGACGCATGGACCGGTTTTCCCGGTAATCCGTATTTGTT (site ACCGACGCTAA) | 0.786
ACCGACTCATGGACCGGTTTTCCCGGTAATCCGTATTTGCC (site ACCGACTCTGG) | 1.78
ACCGATCCATGGACCGGTTTTCCCGGTAATCCGTATTTGCA (site ACCGATCCTTG) | 0.164
ACCGCTACATGGACCGGTTTTCCCGGTAATCCGTATTTGCG (site ACCGCTACTCG) | 1.01
ACCGCTGCATGGACCGGTTTTCCCGGTAATCCGTATTTGGC (site ACCGCTGCTGC) | 2.08
ACCGGAACATGGACCGGTTTTCCCGGTAATCCGTATTTGTG (site ACCGGAACTCA) | 1.41
ACCGGGACATGGACCGGTTTTCCCGGTAATCCGTATTTGAG (site ACCGGGACTCT) | 1.23
ACCGGTCCATGGACCGGTTTTCCCGGTAATCCGTATTTGCC (site ACCGGTCCTGG) | 0
ACCGGTGCATGGACCGGTTTTCCCGGTAATCCGTATTTGAG (site ACCGGTGCTCT) | 1.35
ACCGTATCATGGACCGGTTTTCCCGGTAATCCGTATTTGCT (site ACAGTATCTTG) | 0
ACCGTATCATGGACCGGTTTTCCCGGTAATCCGTATTTGCT (site ACCGTATCTAG) | 2.39
ACCGTATCATGGACCGGTTTTCCCGGTAATCCGTATTTGGT (site ACCGTATCTAC) | 1.32
ACCTAAGCATGGACCGGTTTTCCCGGTAATCCGTATTTGGC (site ACCTAAGCTGC) | 2.22
ACCTACCCATGGACCGGTTTTCCCGGTAATCCGTATTTGAC (site ACCTACCCTGT) | 0.183

Sequence | recombinant UMI read abundance (log10)
ACCTGATCATGGACCGGTTTTCCCGGTAATCCGTATTTGAT (site ACCTGATCTAT) | 0.427
ACCTGCCCATGGACCGGTTTTCCCGGTAATCCGTATTTGTT (site ACCTGCCCTAA) | 0.188
ACCTGGACATGGACCGGTTTTCCCGGTAATCCGTATTTGCA (site ACCTGGACTTG) | 1.82
ACCTGGACATGGACCGGTTTTCCCGGTAATCCGTATTTGTG (site ACCTGGACTCA) | 0.502
ACCTGGGCATGGACCGGTTTTCCCGGTAATCCGTATTTGTC (site ACCTGGGCTGA) | 0
ACCTTAGCATGGACCGGTTTTCCCGGTAATCCGTATTTGAA (site ACCTTAGCTTT) | 0.29
ACCTTAGCATGGACCGGTTTTCCCGGTAATCCGTATTTGGT (site ACCTTAGCTAC) | 0.271
ACCTTCTCATGGACCGGTTTTCCCGGTAATCCGTATTTGGG (site ACCTTCTCTCC) | 0.00668
ACCTTCTCATGGACCGGTTTTCCCGGTAATCCGTATTTGGG (site CCCTTCTCTCC) | 0.00967
ACCTTCTCATGGACCGGTTTTCCCGGTAATCCGTATTTGGG (site GCCTTCTCTCC) | 0.00741
ACCTTCTCATGGACCGGTTTTCCCGGTAATCCGTATTTGGG (site TCCTTCTCTCC) | 0.00341
ACGAACTCATGGACCGGTTTTCCCGGTAATCCGTATTTGTC (site ACGAACTCTGA) | 2.03
ACGAAGACATGGACCGGTTTTCCCGGTAATCCGTATTTGTA (site ACGAAGACTTA) | 2.82
ACGAAGACATGGACCGGTTTTCCCGGTAATCCGTATTTGTA (site AGGAAGACTTG) | 0
ACGAAGCCATGGACCGGTTTTCCCGGTAATCCGTATTTGGG (site ACGAAGCCTCC) | 0.0169
ACGAAGCCATGGACCGGTTTTCCCGGTAATCCGTATTTGGG (site CCGAAGCCTCC) | 0.00571
ACGAAGCCATGGACCGGTTTTCCCGGTAATCCGTATTTGGG (site GCGAAGCCTCC) | 0.0145
ACGAAGCCATGGACCGGTTTTCCCGGTAATCCGTATTTGGG (site TCGAAGCCTCC) | 0.113
ACGACGCCATGGACCGGTTTTCCCGGTAATCCGTATTTGCT (site ACGACGCCTAG) | 0
ACGAGAACATGGACCGGTTTTCCCGGTAATCCGTATTTGCC (site ACGAGAACTGG) | 2.44
ACGAGTTCATGGACCGGTTTTCCCGGTAATCCGTATTTGGA (site ACGAGTTCTTC) | 2.41
ACGATAGCATGGACCGGTTTTCCCGGTAATCCGTATTTGTC (site ACGATAGCTGA) | 2.92
ACGATGACATGGACCGGTTTTCCCGGTAATCCGTATTTGCA (site ACGATGACTTG) | 3.16
ACGATGACATGGACCGGTTTTCCCGGTAATCCGTATTTGCA (site AGGAAGACTTG) | 0.907

Sequence | recombinant UMI read abundance (log10)
ACGCACGCATGGACCGGTTTTCCCGGTAATCCGTATTTGGG (site AAGCACGCTCC) | 0.0265
ACGCACGCATGGACCGGTTTTCCCGGTAATCCGTATTTGGG (site ACGCACGCTCC) | 0.00911
ACGCACGCATGGACCGGTTTTCCCGGTAATCCGTATTTGGG (site AGGCACGCTCC) | 0.00698
ACGCACGCATGGACCGGTTTTCCCGGTAATCCGTATTTGGG (site ATGCACGCTCC) | 0.12
ACGCCACCATGGACCGGTTTTCCCGGTAATCCGTATTTGGG (site ACGCCACCTCC) | 0.011
ACGCCTCCATGGACCGGTTTTCCCGGTAATCCGTATTTGTG (site ACGCCTCCTCA) | 0.0426
ACGCGCACATGGACCGGTTTTCCCGGTAATCCGTATTTGCG (site ACGCGCACTCG) | 1.97
ACGGCCCCATGGACCGGTTTTCCCGGTAATCCGTATTTGTG (site ACGGCCCCTCA) | 0.0276
ACGGCCGCATGGACCGGTTTTCCCGGTAATCCGTATTTGAA (site ACGGCCGCTTT) | 1.43
ACGGCGTCATGGACCGGTTTTCCCGGTAATCCGTATTTGGT (site ACGGCGTCTAC) | 2.01
ACGGGACCATGGACCGGTTTTCCCGGTAATCCGTATTTGTC (site ACGGGACCTGA) | 0
ACGGGCGCATGGACCGGTTTTCCCGGTAATCCGTATTTGTT (site ACGGGCGCTAA) | 1.39
ACGGTAGCATGGACCGGTTTTCCCGGTAATCCGTATTTGCA (site ACAGTATCTTG) | 2.05
ACGGTAGCATGGACCGGTTTTCCCGGTAATCCGTATTTGCA (site ACGGTAGCTTG) | 2.74
ACGTAGCCATGGACCGGTTTTCCCGGTAATCCGTATTTGCC (site ACGTAGCCTGG) | 0.17
ACGTCACCATGGACCGGTTTTCCCGGTAATCCGTATTTGTA (site ACGTCACCTTA) | 0.0617
ACGTGCACATGGACCGGTTTTCCCGGTAATCCGTATTTGGG (site ACGTGCACTCC) | 0.0159
ACGTGGCCATGGACCGGTTTTCCCGGTAATCCGTATTTGAG (site ACGTGGCCTCT) | 0.0124
ACGTGTACATGGACCGGTTTTCCCGGTAATCCGTATTTGTT (site ACGTGTACTAA) | 1.47
ACGTGTTCATGGACCGGTTTTCCCGGTAATCCGTATTTGAC (site ACGTGTTCTGT) | 2.1
ACGTTCCCATGGACCGGTTTTCCCGGTAATCCGTATTTGTG (site AAGTTCCCTCA) | 0.0189
ACGTTCCCATGGACCGGTTTTCCCGGTAATCCGTATTTGTG (site ACGTTCCCTCA) | 0.0247
ACGTTCCCATGGACCGGTTTTCCCGGTAATCCGTATTTGTG (site AGGTTCCCTCA) | 0.0827
ACGTTCCCATGGACCGGTTTTCCCGGTAATCCGTATTTGTG (site ATGTTCCCTCA) | 0.0196
